Broadly, the MIC is the least concentration at which growth counts as inhibited.

Results on five compounds are retold here after patent publication US9453026B2, “ACC inhibitors and uses thereof” (Gilead Apollo, Inc., priority 2011, dated 2016).

For experiment [1], the system named is ACC1. The note with it: ACC1 isolated from rat, mouse, monkey and human; cited from earlier work.
Experiment [2] relates to ACC2. The note with it: ACC2 isolated from rat, mouse, monkey and human; cited from earlier work.
Experiment [3] concerns LNCaP (prostate cancer cell line) cells. Description: Cancer Cell Viability Assay. In kind it is cell-based, human. The note with it: concentration of 5 uM, FIG. 5. The method, then: Compounds of the invention were also assayed in a Cancer Cell Viability Assay as described by Beckers et al. “Chemical Inhibition of Acetyl-CoA Carboxylase Induces Growth Arrest and Cytotoxicity Selectively in Cancer Cells” Cancer Res. (2007) 67, 8180-8187. An exemplary procedure for the assay, which measures the percentage of cancer cells surviving following administration of inhibitor compounds, follows.
LNCaP (prostate cancer cell line) cells plated at 4×10^5 per 6 cm dish were incubated at 37° C., and the following day they were treated with increasing concentrations of inhibitor compounds and incubated. Viable cells and the percentage of dead cells was counted and calculated every day for 5 days from day 0, using trypan blue staining.

In experiment [4] the target is ACC1 (Homo sapiens, UniProt Q13085). Kind of experiment: In vitro ACC1 inhibition assay (ADP-Glo). The following applies: read-out: ACC1. In kind it is biochemical. The gist of the method:
(§1)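 Enzyme (human ACC1 or ACC2) and compound, serially diluted 1:3 over 11 points from a 600 uM DMSO stock, were preincubated 15 min before substrate addition.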

In another experiment the test system is target protein (ACC). Kind of experiment: Thermal Shift Assay (TSA). In kind it is binding. The note with it: FIG. 3. The source says:
103, 43, 15835-15840, the entirety of which is incorporated herein by reference.

A further experiment concerns Candida species. Description: Anti-Fungal Activity Assay, summary over Candida species. In kind it is cell-based. The note with it: summary of Table 3. The method, then: (§2) Compounds of the present invention were evaluated in an Anti-Fungal Activity Assay. An exemplary procedure for the assay, which measures the susceptibility of various Candida species to anti-fungal compounds, follows. Compounds to be tested (including fluconazole and amphotericin B) were dissolved in DMSO to obtain a solution having a concentration of 1 mg/mL. […] All species were grown from frozen stock by directly plating on to freshly prepared Sabouraud Dextrose agar (BD, Difco) and incubated overnight in ambient air at 35° C. for 24 h. A direct suspension was prepared in RPMI 1640+MOPS (Lonza, Biowhittaker) by taking individual colonies from the overnight cultures using sterile swabs soaked in sterile saline. The concentration of the suspension was determined using pre-determined standard curves. […] The original CLSI guidelines focused on reading Candida MICs after 48 h of incubation. As reading after only 24 h offers a clear advantage of patient care, QC limits are being established for all drugs at 24 h. That being said there are no known interpretive breakpoints for amphotericin B at 24 h and the current fluconazole interpretive breakpoints are based on a 48 h reading. The MIC breakpoints for the Pharmaron test compounds were recorded at 48 h, and for the soraphen the 24 h time-point was added. All MIC determinations were achieved by visually comparing the growth found in the antibiotic challenged wells to that of the growth control.

Experiment [5] deals with ACC2 (Homo sapiens, UniProt O00763). Description: In vitro ACC2 inhibition assay (ADP-Glo). The note with it: read-out: ACC2. In kind it is biochemical. The gist of the method: as §1
ACC2 (Homo sapiens, UniProt O00763), sequence (O00763 whole entry, species assumed): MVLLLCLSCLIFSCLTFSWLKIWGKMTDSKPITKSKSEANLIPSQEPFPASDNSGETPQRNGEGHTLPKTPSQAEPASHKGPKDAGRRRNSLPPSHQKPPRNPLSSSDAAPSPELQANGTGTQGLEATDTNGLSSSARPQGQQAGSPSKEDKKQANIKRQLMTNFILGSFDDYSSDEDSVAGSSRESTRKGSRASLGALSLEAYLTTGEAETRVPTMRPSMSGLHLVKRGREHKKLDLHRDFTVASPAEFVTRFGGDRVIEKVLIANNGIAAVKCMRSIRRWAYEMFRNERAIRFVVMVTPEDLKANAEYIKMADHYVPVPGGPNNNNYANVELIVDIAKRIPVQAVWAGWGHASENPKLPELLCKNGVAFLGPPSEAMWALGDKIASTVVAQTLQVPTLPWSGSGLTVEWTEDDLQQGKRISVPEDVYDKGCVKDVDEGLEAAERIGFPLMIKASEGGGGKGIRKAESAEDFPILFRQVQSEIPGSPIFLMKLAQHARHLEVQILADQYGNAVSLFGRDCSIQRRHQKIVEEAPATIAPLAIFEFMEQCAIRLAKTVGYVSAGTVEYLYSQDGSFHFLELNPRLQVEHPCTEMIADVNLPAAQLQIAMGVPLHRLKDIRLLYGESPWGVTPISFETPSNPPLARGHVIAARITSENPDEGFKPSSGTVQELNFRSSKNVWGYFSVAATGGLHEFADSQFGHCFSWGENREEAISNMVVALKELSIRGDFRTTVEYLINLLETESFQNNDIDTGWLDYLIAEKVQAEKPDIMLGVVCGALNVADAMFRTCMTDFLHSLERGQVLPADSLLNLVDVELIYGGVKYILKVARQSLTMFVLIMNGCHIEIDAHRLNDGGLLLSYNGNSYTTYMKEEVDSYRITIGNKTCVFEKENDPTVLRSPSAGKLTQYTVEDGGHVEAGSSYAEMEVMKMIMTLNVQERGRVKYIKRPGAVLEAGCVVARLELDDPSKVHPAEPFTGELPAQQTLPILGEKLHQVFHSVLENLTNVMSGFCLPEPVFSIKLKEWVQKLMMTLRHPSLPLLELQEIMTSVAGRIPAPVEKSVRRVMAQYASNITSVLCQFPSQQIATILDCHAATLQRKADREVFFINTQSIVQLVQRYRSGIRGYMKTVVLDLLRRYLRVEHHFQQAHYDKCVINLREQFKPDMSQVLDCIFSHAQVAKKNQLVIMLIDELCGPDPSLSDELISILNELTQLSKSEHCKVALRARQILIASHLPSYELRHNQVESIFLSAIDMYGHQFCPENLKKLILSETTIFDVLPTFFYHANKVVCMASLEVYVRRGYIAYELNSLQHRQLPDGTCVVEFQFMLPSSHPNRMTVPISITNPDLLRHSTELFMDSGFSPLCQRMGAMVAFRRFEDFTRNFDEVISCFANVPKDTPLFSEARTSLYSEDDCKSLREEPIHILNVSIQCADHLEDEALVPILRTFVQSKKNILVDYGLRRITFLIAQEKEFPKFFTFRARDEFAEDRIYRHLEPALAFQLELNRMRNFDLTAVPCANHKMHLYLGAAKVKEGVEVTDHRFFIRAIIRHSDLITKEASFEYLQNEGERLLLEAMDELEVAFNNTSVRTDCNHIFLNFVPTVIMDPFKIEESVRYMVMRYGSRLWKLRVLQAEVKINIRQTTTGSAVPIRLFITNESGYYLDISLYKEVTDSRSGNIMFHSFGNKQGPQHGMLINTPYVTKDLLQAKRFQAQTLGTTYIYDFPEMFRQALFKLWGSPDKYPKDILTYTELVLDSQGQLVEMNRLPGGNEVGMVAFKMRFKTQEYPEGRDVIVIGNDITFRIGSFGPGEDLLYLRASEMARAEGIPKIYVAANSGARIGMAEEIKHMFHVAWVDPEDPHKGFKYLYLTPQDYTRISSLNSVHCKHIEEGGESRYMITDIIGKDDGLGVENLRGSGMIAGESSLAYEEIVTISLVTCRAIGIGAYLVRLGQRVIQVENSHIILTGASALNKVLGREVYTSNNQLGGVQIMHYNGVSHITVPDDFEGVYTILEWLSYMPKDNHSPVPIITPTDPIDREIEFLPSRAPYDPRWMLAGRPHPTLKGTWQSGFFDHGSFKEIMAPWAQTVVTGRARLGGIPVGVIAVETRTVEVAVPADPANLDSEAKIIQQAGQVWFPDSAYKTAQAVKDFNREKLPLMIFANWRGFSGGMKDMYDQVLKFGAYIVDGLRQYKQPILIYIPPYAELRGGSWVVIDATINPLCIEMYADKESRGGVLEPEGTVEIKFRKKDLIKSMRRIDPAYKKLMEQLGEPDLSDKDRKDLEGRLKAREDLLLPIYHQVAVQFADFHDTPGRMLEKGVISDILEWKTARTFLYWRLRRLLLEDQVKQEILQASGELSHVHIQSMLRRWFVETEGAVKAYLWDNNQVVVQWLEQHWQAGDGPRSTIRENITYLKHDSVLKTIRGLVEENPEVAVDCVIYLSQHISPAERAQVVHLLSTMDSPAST
(In general: ADP-Glo turns the ADP formed in a reaction into a luminescent signal.)

The subject of experiment [6] is C. parapsilosis ATCC 22019. Kind of experiment: Anti-Fungal Activity Assay (broth microtiter MIC). It counts as cell-based. The following applies: 3 replicates, test compounds read at 48 h. Here is the method:
as §2

For another experiment, the system named is C. krusei ATCC 6258. Kind of experiment: Anti-Fungal Activity Assay (broth microtiter MIC). It counts as cell-based. The following applies: 3 replicates, test compounds read at 48 h. Here is the method: as §2
For a further experiment, the system named is C. albicans ATCC 90028. Kind of experiment: Anti-Fungal Activity Assay (broth microtiter MIC). In kind it is cell-based. The following applies: 3 replicates, test compounds read at 48 h. The method, then:
as §2

Another experiment deals with HepG2 cells. Description: [14C] Acetate Incorporation HepG2 Cellular Assay. It counts as cell-based. The note with it: Homo sapiens; HepG2 cells, FIG. 4; read-out: IC50, incorporation of isotopically labeled acetate into fatty acids. The method, then: Compounds of the present invention were evaluated in a [^14C] Acetate Incorporation Assay. An exemplary procedure for the assay, which measures the incorporation of isotopically labeled acetate into fatty acids, follows. HepG2 cells were maintained in T-75 flasks containing DMEM supplemented with 2 mM 1-glutamine, penicillin G (100 units/ml), streptomycin 100 μg/ml with 10% FBS and incubated in a humidified incubator with 5% CO2 at 37° C. Cells were fed every 2-3 days. On Day 1. cells were seeded in 24 well plates at a density of 1.2×10^5 cells/ml/well with the growth medium. On Day 3 the medium was replaced with fresh medium containing 10% FBS. On Day 4 the medium was replaced with 0.5 ml of fresh medium containing test compound (in DMSO; final [DMSO] is 0.5%) and the cells were incubated at 37° C. for 1 hour. To one copy of plate, 4 ul of [2-^14C]acetate (56 mCi/mmol; 1 mCi/ml; PerkinElmer) was added and the cells were incubated at 37° C., 5% CO2 for 5 hrs. To a second copy of plate, 4 ul of cold acetate were added and the cells were incubated at 37° C., 5% CO2 for 5 hrs. This plate was used for protein concentration measurement. Medium was removed and placed in a 15 ml centrifuge tube (BD, Falcon/352096). Cells were rinsed with 1 ml PBS, then aspirated, and the rinse and aspiration steps were repeated. 0.5 ml of 0.1N NaOH were added to each well and let sit at RT to dissolve cell monolayer. The remaining cell suspension was pooled with medium. For the protein determination plate, an aliquot was removed for protein determination (25 ul). […] 5 ml petroleum ether was added per tube, shaken vigorously, centrifuged at 1000 rpm for 5 min, and 500 uL of the petroleum ether layer was transferred to tubes for Microbeta reading, then 2 ml Aquasol-2 were added to each tube, the tubes were shaken and counted with a Microbeta Liquid Scintillation Counter (Perkin Elmer).
The remaining petroleum ether layer was discarded and the aqueous phase reserved for fatty acid extractions. […] 2 ml of Aquasol-2 was added to each vial, and the vials were shaken and counted on a scintillation counter.

The test system of a further experiment is fatty acid synthesis. Description: In Vivo Fatty Acid Synthesis Study ([C14]-acetate incorporated into rat liver tissue). The note with it: FIG. 16. The method, then: Compounds of the present invention were also assayed in an In Vivo Fatty Acid Synthesis Study as described by Harwood et al. “Isozyme-nonselective N-Substituted Bipiperidylcarboxamide Acetyl-CoA Carboxylase Inhibitors Reduce Tissue Malonyl-CoA Concentrations, Inhibit Fatty Acid Synthesis, and Increase Fatty Acid Oxidation in Cultured Cells and in Experimental Animals” Journal of Biological Chemistry (2008) 278, 37099-37111. An exemplary procedure for the assay, which measures the amount of radioactive [C^14]-acetate incorporated into rat liver tissue, follows.
Animals given food ad water ad libitum were treated orally at a volume of 1.0 mL/200 g body weight (rat) with either an aqueous solution containing 0.5% methylcellulose (vehicle), or an aqueous solution containing 0.5% methylcellulose plus test compound. One to four hours after compound administration, animals received an intraperitoneal injection of 0.5 mL of [C^14]-acetate (64 uCi/mL; […]). […] The pooled organic fractions were transferred to liquid scintillation vials, dried under nitrogen, dissolved in 7 mL of Aquasol liquid scintillation fluid, and assessed for radioactivity using a Beckman 6500 liquid scintillation counter. Results were recorded as disintigrations per minute (DPM) per milligram of tissue.

The test system of a further experiment is ACC. Description: IC50 quoted for Soraphen A in the thermal shift text. It counts as biochemical.
Setting [7] is: Lodderomyces parapsilosis, ATCC22019, 48 h, read-out: MIC.
Where [8] appears, read: Pichia kudriavzevii, ATCC6258, 48 h, read-out: MIC.
Where [9] appears, read: Candida albicans, ATCC90028, 48 h, read-out: MIC.

Values after ≈ are worked out from the molar mass of the structure shown. Like-named read-outs stand apart in the source and are kept apart here.

On to `O=C(c1c2ccccc2cc2ccccc12)N1CCC(N2CCC[C@@H](C(=O)N3CCOCC3)C2)CC1` [CP-640186], for which the IC50 with ACC1 [1] and with ACC2 [2] was about 60 nM in each case.
Turning to `COc1ccccc1[C@@H](Cn1c(=O)n(C(C)(C)C(=O)O)c(=O)c2c(C)c(-c3ncco3)sc21)OC(C)C` [I-158, 2-[1-[(2S)-2-(2-methoxyphenyl)-2-(propan-2-yloxy)ethyl]-5-methyl-6-(1,3-oxazol-2-yl)-2,4-dioxo-1H,2H,3H,4H-thieno[2,3-d]pyrimidin-3-yl]-2-methylpropanoic acid], the cell population growth entry in experiment [3] was “completely inhibit cell population growth”. In addition, the IC50 at ACC1 [4], at ACC2 [5] and with HepG2 cells was under 100 nM each time. For the same compound, the “thermal melting point change compared with Soraphen A” value with target protein (ACC) is “equivalent to that of Soraphen A”. Moreover, the “anti-fungal activity MICs” value in the experiment on Candida species is reported as “low ug/mL range”. Further, the MIC in experiment [6] came out at 8 µg/mL (≈ 15.2 µM); in [6] (setting [7]) it was 8 µg/mL (≈ 15.2 µM); in the experiment on C. krusei ATCC 6258, 2 µg/mL (≈ 3.79 µM); in the experiment on C. krusei ATCC 6258 (setting [8]), 2 µg/mL (≈ 3.79 µM); with C. albicans ATCC 90028, 2 µg/mL (≈ 3.79 µM); with C. albicans ATCC 90028 (setting [9]), 2 µg/mL (≈ 3.79 µM).
Regarding `COc1ccccc1[C@H](Cn1c(=O)n(C(C)(C)C(N)=O)c(=O)c2c(C)c(-c3ncco3)sc21)OC(C)C` [I-174, 2-[1-[(2R)-2-(2-methoxyphenyl)-2-(propan-2-yloxy)ethyl]-5-methyl-6-(1,3-oxazol-2-yl)-2,4-dioxo-1H,2H,3H,4H-thieno[2,3-d]pyrimidin-3-yl]-2-methylpropanamide], the IC50 on ACC1 [4], on ACC2 [5] and with HepG2 cells was under 100 nM in each case. Also, in the experiment on target protein (ACC), the “thermal melting point change compared with Soraphen A” value is “equivalent to that of Soraphen A”. Also, in the experiment on Candida species, the “anti-fungal activity MICs” value was “low ug/mL range”. Also, the minimal inhibitory concentration (MIC) came out at 8 µg/mL (≈ 15.2 µM) in [6]; 8 µg/mL (≈ 15.2 µM) in experiment [6] (setting [7]); 2 µg/mL (≈ 3.8 µM) in the experiment with C. krusei ATCC 6258; 2 µg/mL (≈ 3.8 µM) in the experiment on C. krusei ATCC 6258 (setting [8]); 2 µg/mL (≈ 3.8 µM) with C. albicans ATCC 90028; 2 µg/mL (≈ 3.8 µM) in the experiment with C. albicans ATCC 90028 (setting [9]).
In the case of `COc1ccccc1[C@H](Cn1c(=O)n(C(C)(C)C(=O)O)c(=O)c2c(C)c(-c3ncco3)sc21)O[C@H]1CC[C@@H](O)CC1` [I-278, 2-[1-[(2R)-2-[(4-hydroxycyclohexyl)oxy]-2-(2-methoxyphenyl)ethyl]-5-methyl-6-(1,3-oxazol-2-yl)-2,4-doxo-1H,2H,3H,4H-thieno[2,3-d]pyrimidin-3-yl]-2-methylpropanoic acid], the “fatty acid (FA) synthesis in rats” value in the experiment on fatty acid synthesis is reported as “dose-dependent decrease in FA synthesis”. The IC50 at ACC1 [4] and on ACC2 [5] was under 100 nM in each case.
On to `CO[C@H]1CCCC[C@@H](c2ccccc2)OC(=O)[C@@H](C)[C@@]2(O)O[C@H]([C@@H](C)[C@H](O)[C@H]2OC)[C@@H](C)/C=C/[C@H]1OC` [Soraphen A], for which, in the experiment on ACC, the IC50 turned out to be 4 nM.
